Laboratory results as given in PMC9658586, “1,4-Naphthoquinone Motif in the Synthesis of New Thiopyrano[2,3-d]thiazoles as Potential Biologically Active Compounds” (Molecules, 2022).
Like-named read-outs stand apart in the source and are kept apart here.

Key:
[1] = tested on: human epidermoid cervix carcinoma KB3-1 cells; assay: MTT cell viability assay, KB3-1; type: cell-based
Experimental: (§1) The MTT cell viability assay was performed 72 h after cells treatment with various concentrations of studied compounds and doxorubicin, a reference drug. […] It is known that ABCB1 (P-glycoprotein), MRP1/ABCC1 (multidrug resistance protein 1), and BCRP/BCG2 (breast cancer resistance protein) have been reported to be key players in resistance to chemotherapy. […] The p53 has diverse mutations in almost all human tumors, stimulating their hyper-proliferation, invasion/metastasis, and thus, influencing the potency of various chemotherapeutics (i.e., platins and anti-metabolites).
(§2) Human colon carcinoma HCT116 cells, human breast adenocarcinoma cells of MCF-7 line, human T-leukemia Jurkat cells, human chronic myelogenous leukemia K562 cells, and human keratinocytes of HaCaT line were from the Cell Collection of R.E. Kavetsky Institute of Experimental Pathology, Oncology and Radiobiology (Kyiv, Ukraine). Murine macrophages of J774.2 line were a generous gift from Professor Sir John Vane (William Harvey Research Institute, London, UK) via Professor Janusz Marcinkiewicz (Jagiellonian University Medical College, Krakow, Poland). Human colon carcinoma HCT116 p53-/- cells with knockdown of P53 gene, as well as human epidermoid cervix carcinoma KB3-1 cells and its ABCB1-overexpressing subline KBC-1, were kindly provided by Professor W. Berger (Institute of Cancer Research, Medical University of Vienna, Austria). […] Human leukemia monocytic THP-1 cells were kindly provided by Professor M. Herrmann (Department of Internal Medicine, Institute for Clinical Immunology and Rheumatology, University of Erlangen-Nuremberg, Germany). Cells were cultured in DMEM or RPMI-1640 medium supplemented with 10% fetal bovine serum (all were purchased from Biowest, Nuaille, France) at 37 °C in a humidified atmosphere containing 5% CO2.
(§3) MTT assay was used to examine the viability of tumor and pseudo-normal cells after their treatment with studied thiopyrano[2,3-d]thiazole derivatives and doxorubicin (Actavis S.R.L., Bucharest, Romania). Cells were seeded in 96-well plates at a density of 3–5 × 103. After 24 h, cells were treated with compound […], 1,4-NQ (0.1–100 µM), and doxorubicin (0.1–100 µM). After incubation for 72 h, MTT reagent (Sigma-Aldrich, St. Louis, MO, USA) was added to each well, according to the Sigma-Aldrich protocol. An absorbance Reader BioTek ELx800 (BioTek Instruments, Inc., Winooski, VT, USA) was used to measure the reaction product.

[2] = tested on: Human colon carcinoma HCT116 cells (HCT116wt); assay: MTT cell viability assay, HCT116wt; type: cell-based
Experimental: as §1, §2, §3

[3] = tested on: Human colon carcinoma HCT116 p53-/- cells; assay: MTT cell viability assay, HCT116 p53-/-; type: cell-based; settings: MTT, 72 h, read-out: IC50, HCT116 p53-/-
Experimental: as §1, §2, §3

[4] = tested on: human breast adenocarcinoma cells of MCF-7 line; assay: MTT cell viability assay, MCF-7; type: cell-based
Experimental: as §1, §2, §3

[5] = tested on: Murine macrophages of J774.2 line; assay: MTT cell viability assay, J774.2; type: cell-based; settings: pseudo-normal murine macrophages
Experimental: as §1, §2, §3

[6] = tested on: human chronic myelogenous leukemia K562 cells; assay: MTT cell viability assay, K562; type: cell-based
Experimental: as §1, §2, §3

[7] = tested on: KBC-1 (ABCB1-overexpressing subline of KB3-1); assay: MTT cell viability assay, KBC-1; type: cell-based; settings: Homo sapiens, 72 h
Experimental: as §1
as §2, with “Cells were cultured in DMEM or RPMI-1640 medium supplemented with 10% fetal bovine serum (all were purchased from Biowest, Nuaille, France) at 37 °C in a humidified atmosphere containing 5% CO2.” left out
MTT assay was used to examine the viability of tumor and pseudo-normal cells after their treatment with studied thiopyrano[2,3-d]thiazole derivatives and doxorubicin (Actavis S.R.L., Bucharest, Romania). […] An absorbance Reader BioTek ELx800 (BioTek Instruments, Inc., Winooski, VT, USA) was used to measure the reaction product.

[8] = tested on: isolated normal human peripheral blood lymphocytes; assay: MTT cell viability assay, isolated lymphocytes; type: cell-based; settings: Homo sapiens, Lymphocyte, 72 h, read-out: IC50, Isolated lymphocytes, MTT, 72 h, normal human peripheral blood lymphocytes
Experimental: We continued the cytotoxicity study of synthesized derivatives 3.1–3.6 toward tumor and pseudo-normal cells in vitro. The MTT cell viability assay was performed 72 h after cells treatment with various concentrations of studied compounds and doxorubicin, a reference drug. […] The THP-1 cells, monocytes isolated from peripheral blood from an acute monocytic leukemia patient, were also sensitive to the 3.6 treatment. […] The 3.6 inhibited the viability of epidermoid carcinoma (KB3-1 and its ABCB1-overexpressing subline KBC-1) and colon carcinoma (HCT116wt and its p53 knockdown subline HCT116 p53-/-) cells. It is known that ABCB1 (P-glycoprotein), MRP1/ABCC1 (multidrug resistance protein 1), and BCRP/BCG2 (breast cancer resistance protein) have been reported to be key players in resistance to chemotherapy. […] Thus, the p53 status of colon carcinoma cells influenced the anti-tumor effects of the studied 3,5,10,11-tetrahydro-2H-benzo[6,7]thiochromeno[2,3-d][1, 3]thiazole-2,5,10-trione. The p53 has diverse mutations in almost all human tumors, stimulating their hyper-proliferation, invasion/metastasis, and thus, influencing the potency of various chemotherapeutics (i.e., platins and anti-metabolites). […] Based on our findings, one can assume a p53-dependent mode of action for 3.6 toward colon cancer cells.
as §3
The study protocol with human lymphocytes isolated from healthy adult peripheral blood was approved by BioEthics Committee of the Institute of Cell Biology of National Academy of Sciences of Ukraine (protocol No 2 from 27 January 2019), and with written consent of donor.

salmon sperm DNA = assay: DNA/methyl green colorimetric (replacement) assay; type: binding; settings: 1µM
Experimental: In addition, we used DNA/methyl green colorimetric assay to study the possible interaction of compound 3.6 in DNA. […] This assay was used to measure the displacement of methyl green from DNA by compounds with the ability to intercalate DNA [54].
The capacity of the tested compounds to intercalate into salmon sperm DNA was determined using the methyl green assay. Briefly, salmon sperm DNA (10 mg/mL) was incubated for 1 h at 37 °C with 15 µL of methyl green solution (1 mg/mL in H2O). The compounds were added at concentrations 1 and 10 µM/mL and incubated at 37 °C in the dark for 2 h. Reduction of the absorbance of methyl green at 642 nm induced by the test compounds was measured with a multiplate reader, Plate Reader BioTek Lx80 ( BioTek Instruments, Inc., Winooski, VT, USA). Doxorubicin, a well-known intercalating agent, was used as a positive control.

[9] = tested on: panel of sixty cancer cell lines; assay: NCI single-dose (10 μM) anticancer screen, sulforhodamine B, 60-cell-line panel; type: cell-based, human; settings: 48 h
Experimental: (§4) Considering the results of previous studies of fused thiazolidinones and their analogs, a series of thiopyrano[2,3-d]thiazoles with naphthoquinone fragments in the structure were studied for their anticancer activity. Thus, synthesized thiopyranothiazole derivatives 3.5 and 3.6 were selected by the National Cancer Institute (NCI), U.S., for their anticancer activity at 10 μM concentration toward a panel of sixty cancer cell lines representing nine different types (leukemia, melanoma, lung, colon, CNS, ovarian, renal, prostate, and breast cancers) (Figures S13–S14). Selection for screening based on new derivatives’ ability to add diversity to the NCI small molecules collection and anticancer assays were performed according to the NCI guidelines and protocols previously described. The compounds were added at the mentioned concentration, and the cell cultures were incubated for 48 h. The results for each compound were reported as the growth percent (GP%) of treated cells compared with untreated control cells.
Anticancer in vitro assay was performed on the human tumor cell lines panel derived from nine neoplastic diseases by the protocol of the Drug Evaluation Branch, National Cancer Institute, Bethesda, MD, USA [44, 45, 46]. Tested compounds were added to the culture at a single concentration (10^−5 M), and the cultures were incubated for 48 h. Endpoint determinations were made with a protein binding dye, sulforhodamine B. Results for each tested compound were reported as the GP% of the treated cells compared to untreated control cells. GP% was spectrophotometrically evaluated vs. controls not treated with test agents.

RPMI-8226/Leukemia = assay: NCI single-dose screen, RPMI-8226; type: cell-based, human; settings: 10 μM, 48 h
Experimental: as §4
(§5) Anticancer in vitro assay was performed on the human tumor cell lines panel derived from nine neoplastic diseases by the protocol of the Drug Evaluation Branch, National Cancer Institute, Bethesda, MD, USA [44, 45, 46]. […] GP% was spectrophotometrically evaluated vs. controls not treated with test agents.

SR/Leukemia = assay: NCI single-dose screen, SR; type: cell-based, human; settings: 10 μM, 48 h
Experimental: as §4, §5

[10] = tested on: EKVX/Non-Small Cell Lung Cancer; assay: NCI single-dose screen, EKVX; type: cell-based, human; settings: 10 μM, 48 h
Experimental: as §4, §5

IGROV1/Ovarian Cancer = assay: NCI single-dose screen, IGROV1; type: cell-based, human; settings: 10 μM, 48 h
Experimental: as §4, §5

UO-31/Renal Cancer = assay: NCI single-dose screen, UO-31; type: cell-based, human; settings: 10 μM, 48 h
Experimental: as §4, §5

T-47D/Breast Cancer = assay: NCI single-dose screen, T-47D; type: cell-based, human; settings: 10 μM, 48 h
Experimental: as §4, §5

Compound | IC50 ([1]; Homo sapiens, KB 3-1, 72 h) [µM] | IC50 ([2]; Homo sapiens, HCT-116, 72 h) [µM] | IC50 ([3]; Homo sapiens, HCT-116) [µM] | IC50 ([4]; Homo sapiens, MCF7, 72 h) [µM] | IC50 ([6]; Homo sapiens, K562, 72 h) [µM] | melting point [°C] | IC50 ([5]; Mus musculus, J774.2, 72 h) [µM] | also measured
11-(2-Phenylprop-1-en-1-yl)-3,11-dihydro-2H-benzo[6,7]thiochromeno[2,3-d]thiazole-2,5,10-trione [Compound 3.3] | – | – | – | – | – | – | – | IC50 ([1]; 72 h): 28.8 µM; IC50 ([2]; 72 h): 15.8 µM; IC50 [3]: 11.1 µM; IC50 ([4]; 72 h): 26.8 µM; IC50 ([5]; 72 h): 30.5 µM; IC50 ([6]; 72 h): 13 µM
O=C1C=CC(=O)c2ccccc21 [1,4-NQ, 1,4-naphthoquinone] | 20.7 | – | – | – | – | – | – | IC50 [7]: 8.33 µM; IC50 [8]: 62.9 µM; percentage of methyl green replacement (salmon sperm DNA): 65%
O=C1C2=C(C(=O)c3ccccc31)C(C=Cc1ccccc1)c1sc(=O)[nH]c1S2 (stereo not shown) [Compound 3.1, 11-Styryl-3,11-dihydro-2H-benzo [6,7]thiochromeno [2,3-d]thiazole-2,5,10-trione] | 37 | 29.2 | 40.3 | 9.19 | 43.7 | 338 to 340 | 24.4 | –

The next lines start with results.

IC50 ([1]; Homo sapiens, KB 3-1, 72 h) [µM] | IC50 ([2]; Homo sapiens, HCT-116, 72 h) [µM] | IC50 ([3]; Homo sapiens, HCT-116) [µM] | IC50 ([4]; Homo sapiens, MCF7, 72 h) [µM] | IC50 ([6]; Homo sapiens, K562, 72 h) [µM] | melting point [°C] | Compound | IC50 ([5]; Mus musculus, J774.2, 72 h) [µM] | also measured
39.2 | 6.81 | > 50 | 8.47 | 26 | 330 to 332 | O=C1C2=C(C(=O)c3ccccc31)C(C=Cc1ccccc1[N+](=O)[O-])c1sc(=O)[nH]c1S2 (stereo not shown) [Compound 3.2, 11-(2-Nitrostyryl)-3,11-dihydro-2H-benzo[6,7]thiochromeno[2,3-d]thiazole-2,5,10-trione] | 0.74 | –
26 | 5.54 | 25.2 | 34.3 | 7.11 | 230 to 232 | CC1(C)C2=C(Sc3[nH]c(=O)sc31)C(=O)c1ccccc1C2=O [Compound 3.4, 11,11-Dimethyl-3,11-dihydro-2H-benzo[6,7]thiochromeno[2,3-d]thiazole-2,5,10-trione] | 11.1 | –
> 50 | 43.6 | > 50 | > 50 | > 50 | 231 to 233 | O=C1C2=C(C(=O)c3ccccc31)C1(CCCC1)c1sc(=O)[nH]c1S2 [Compound 3.5, Spiro[benzo[6,7]thiochromeno[2,3-d]thiazole-11,1’-cyclopentane]-2,5,10(3H)-trione] | > 50 | Mean Growth, % ([9]; growth percent vs untreated control, 60 cell lines): 88.33%; Range of Growth, % ([9]; range over 60 cell lines): 51.21 to 126.93%; Most Sensitive Cell Line Growth, % (RPMI-8226/Leukemia) (RPMI-8226/Leukemia): 53.82%; Most Sensitive Cell Line Growth, % (SR/Leukemia) (SR/Leukemia): 59.89%; Most Sensitive Cell Line Growth, % (EKVX/Non-Small Cell Lung Cancer) [10]: 54.98%; Most Sensitive Cell Line Growth, % (IGROV1/Ovarian Cancer) (IGROV1/Ovarian Cancer): 55.15%; Most Sensitive Cell Line Growth, % (UO-31/Renal Cancer) (UO-31/Renal Cancer): 55.54%; Most Sensitive Cell Line Growth, % (T-47D/Breast Cancer) (T-47D/Breast Cancer): 51.21%
